Experimental data taken from EP2758382B1, “HETEROCYCLOCARBONYLAMINOTHIAZOLES, COSMETIC AND DERMATOLOGICAL PREPARATIONS CONTAINING THEM, AND THEIR USE FOR THE TREATMENT AND PROPHYLAXIS OF UNWANTED PIGMENTATION OF THE SKIN” (Beiersdorf AG, priority 2011, dated 2013).

Biological target: T1, humane Tyrosinase (Homo sapiens, UniProt P14679)
T1 sequence (P14679 19-529): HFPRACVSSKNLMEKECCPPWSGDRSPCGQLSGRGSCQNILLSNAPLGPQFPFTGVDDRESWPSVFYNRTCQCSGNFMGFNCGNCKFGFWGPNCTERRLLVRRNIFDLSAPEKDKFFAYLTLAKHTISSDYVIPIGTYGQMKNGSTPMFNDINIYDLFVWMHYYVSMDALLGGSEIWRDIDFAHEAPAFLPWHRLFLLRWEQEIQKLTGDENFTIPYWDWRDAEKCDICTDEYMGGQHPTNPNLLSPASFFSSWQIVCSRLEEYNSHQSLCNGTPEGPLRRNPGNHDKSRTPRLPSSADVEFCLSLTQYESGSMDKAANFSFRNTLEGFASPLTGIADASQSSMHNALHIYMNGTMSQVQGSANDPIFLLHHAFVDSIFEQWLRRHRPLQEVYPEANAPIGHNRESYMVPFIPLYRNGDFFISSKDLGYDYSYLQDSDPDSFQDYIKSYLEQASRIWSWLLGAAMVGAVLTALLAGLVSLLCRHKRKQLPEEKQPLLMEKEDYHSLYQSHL
Assay: Enzyme test: conversion of L-DOPA to L-Dopachinon by human tyrosinase, MBTH detection, absorption at 490 nm
Format: biochemical
Conditions: Konzentration 10 µg/mL; substrate L-DOPA
Text: Die Wirksamkeit der Thiazole wurde mit einem Enzymtest belegt, in der Umsatz von L-DOPA zu L-Dopachinon durch eine humane Tyrosinase gemessen wurde. Bei dieser literaturbekannten Methode (Winder, A.J. and Harris, H., New assays for the tyrosine hydroxylase and dopa oxidase activities of tyrosinase. Eur. J. Blochem. (1991), 198, 317-26) wird das Reaktionsprodukt L-Dopaquinone mit MBTH (3-methyl-2-benzothiazoline hydrazone) zu einer pinkfarbenen Substanz umgesetzt, deren Zunahme über die Zeit durch Absorption bei 490 nm gemessen wird. In Tabelle ein sind Wirksamkeitsdaten für einige der beanspruchten Substanzen beispielhaft dargestellt. Daraus lässt sich schließen, dass die erfindungsgemäßen Substanzen äußerst effektive pigmentierungs-inhibierende Substanzen sind.

First: O=C(Nc1nc(-c2ccc(O)cc2O)cs1)N1CCCCC1 [N-(4-(2,4-dihydroxyphenyl)thiazol-2-yl)piperidin-1-carboxamid]
Second: O=C(Nc1nc(-c2ccc(O)cc2O)cs1)N1CCNCC1 [N-(4-(2,4-dihydroxyphenyl)thiazol-2-yl)piperazin-1-carboxamid]
The “Inhibition (% der Kontrolle)” value of the first is higher: 97 % der Kontrolle for the first, 94 % der Kontrolle for the second.

Compared with Oc1ccc(-c2csc(N3CCNCC3)n2)c(O)c1 [4-(2-(Piperazin-1-yl)thiazol-4-yl)benzen-1,3-diol], Oc1ccc(-c2csc(N3CCCCC3)n2)c(O)c1 [4-(2-(Piperidin-1-yl)thiazol-4-yl)benzen-1,3-diol] is lower in “Inhibition (% der Kontrolle)” value: 93 % der Kontrolle for the first, 82 % der Kontrolle for the second.

Going from O=C(Nc1nc(-c2ccc(O)cc2O)cs1)N1CCOCC1 [N-(4-(2,4-dihydroxyphenyl)thiazol-2-yl)morpholin-4-carboxamid] to CCN1CCN(C(=O)Nc2nc(-c3ccc(O)cc3O)cs2)CC1 [N-(4-(2,4-dihydroxyphenyl)thiazol-2-yl)-4-ethylpiperazin-1-carboxamid], the “Inhibition (% der Kontrolle)” value falls from 97 % der Kontrolle to 94 % der Kontrolle.

CCN1CCN(c2nc(-c3ccc(O)cc3O)cs2)CC1 [4-(2-(4-Ethylpiperazin-1-yl)thiazol-4-yl)benzen-1,3-diol] and Oc1ccc(-c2csc(N3CCOCC3)n2)c(O)c1 [4-(2-Morpholinothiazol-4-yl)benzen-1,3-diol] are the same in “Inhibition (% der Kontrolle)” value: 91 % der Kontrolle for the first, 91 % der Kontrolle for the second.
